Measured values from patent publication US8889156B2, “Calcium-binding agents induce hair growth and/or nail growth” (priority 2009, dated 2014).
Read-outs that look alike come from different tables or passages of the source. Square brackets hold non-standard residues; d marks the D form. Ends that are not written are not given here. pS = N[C@@H](COP(=O)(O)O)C(=O)O

Legend:
[1] = HA binding assay (pulldown of fluorescein-labeled peptides, Langmuir isotherm fit); details: for Nmax (maximum monolayer surface concentration) / KA (binding affinity for HA): fit of Langmuir equation; for KA (binding affinity for HA): fluorescein-labeled peptide 0-100 μM, 0.3 mg HA nanocrystals
Experimental: Fluorescein-labeled DSS-containing peptides of various lengths were subjected to pulldown assays as follows: Samples containing varying concentrations of fluorescein-labeled peptide (0-100 μM) and a fixed amount (0.3 mg) of HA nanocrystals with a specific surface area of 100 m^2/g (Berkeley Advanced Biomaterials, Berkeley, Calif.) were prepared. Measurements were taken of the absorbance of the labeled peptide at 488 nm (the peak absorbance of the fluorescein label) before and after exposure to the HA. The amount of peptide bound was calculated by comparing the ratio of the final (Af) and initial (Ai) absorbances to the initial concentration (C0) [Cbound=(Af/Ai)C0]. Plots were generated of the amount of peptide bound per meter squared of HA surface area vs. concentration of unbound peptide at equilibrium. The resulting isotherms were fit to the Langmuir isotherm, x/m=(KANmaxCeq)/(1+KACeq), where x/m represents the molar amount of peptide bound per unit of HA surface area, KA is the affinity constant of the peptide for the HA surface (L/Mol), Nmax is the maximum surface concentration (mol/m^2), and Ceq is the molar concentration of unbound peptide at equilibrium (Calis et al. (1995) Pharm Res., 12: 1072-1076).
In order to quantitatively assess the strength of the DSS-HA interaction as well as to determine the roles of peptide length and sequence on binding, fluorescein-labeled, DSS-containing peptides of various lengths were subjected to pulldown assays as described in “Materials and Methods.”
The experimental data were fit to the Langmuir isotherm, which describes the binding of molecules to surfaces with the conditions that (1) all binding sites have the same affinity for the peptide and (2) the peptide will form a monolayer on the surface but cannot accumulate to higher levels (Atkins (1994) Physical chemistry. Freeman, New York). The excellent fit of the Langmuir isotherm to the experimental data validates these conditions, and the constants obtained from this analysis were used for comparisons between peptides. As shown in FIG. 7A and summarized in Table 6, both the binding affinity (KA) and the monolayer concentration (NMax) of the various peptides increased with the number of DSS repeats per peptide. Additionally, several variant peptides were tested (FIGS. 7B, 7C, Table 6): a peptide containing a longer side chain at the first position (4ESS (SEQ ID NO:34)), peptides containing a more sterically hindered hydroxyl group at the second and third positions (4DTT (SEQ ID NO:36), 4NTT (SEQ ID NO:38), 4ETT (SEQ ID NO:37)), peptides lacking a charged group at the first position (4NSS (SEQ ID NO:35), 8ASS (SEQ ID NO:26)), and peptides lacking hydroxyl groups at the second and third positions (DAA-8 (SEQ ID NO:40), 8NAA (SEQ ID NO:41)).

[2] = Binding of labeled peptides to carious lesions in teeth (CLSM); set-up: species or system human; details: labeled peptide, settings optimized per sample
Excerpt: Sections of human teeth containing obvious carious lesions, which consist of demineralized enamel, were polished and exposed to 5(6)-carboxyfluorescein-labeled DSS peptides and variants. The sections were washed extensively and imaged by CLSM using blue laser illumination (A=488 nm) and a FITC emission filter, with microscope and camera settings adjusted for each sample to optimize the signal detected from each peptide. The images were examined to identify the relative levels of peptide binding in healthy versus carious tissue. […] Given their ability to remineralize at sites of enamel degradation, they can also be used to initiate remineralization at sites of enamel degradation such as caries or injury sites without causing inappropriate nucleation on healthy tissue surfaces.

[3] = Tissue specific binding of labeled peptides to sections of human teeth (CLSM); details: 5(6)-carboxyfluorescein-labeled peptide, ten minutes; for level of binding (staining) to tooth surfaces: identical settings
Excerpt: In order to investigate the tissue specificity of DSS peptide binding to tooth tissue, sections of human teeth were exposed to DSS peptides and variants, then imaged by CLSM. The peptides utilized for these experiments were 8DSS (SEQ ID NO:33), 8ASS (SEQ ID NO:26), 8DAA (SEQ ID NO:40), 8NAA (SEQ ID NO:41), 4DSS (SEQ ID NO:31), 4ESS (SEQ ID NO:34), 4NSS (SEQ ID NO:35), 4DTT (SEQ ID NO:36), 4ETT (SEQ ID NO:37), 4NTT (SEQ ID NO:38), and 6DSS (SEQ ID NO:32). Sagittal sections of human teeth extracted during normal clinical practice were polished and then incubated for ten minutes in a solution of the appropriate 5(6) carboxyfluorescein-labeled peptide (12.5pM) containing 10 mM NaCl and 50 mM HEPES, pH 7.0. Control samples were prepared without peptide. Samples were washed extensively after treatment and imaged by CLSM using blue laser illumination (A=488 nm) and a FITC emission filter, with identical camera and microscope settings for each sample. For each section, multiple scans were collected and assembled in an automated mode to generate panels of images representing an area of 13×13 mm, sufficient in most cases to encompass the whole section. […] Significant binding was also seen to the edges of the pulp cavity.

[4] = tested on: Streptococcus mutans strain UA159; format: cell-based
Experimental: The sequences of these fusion proteins are […] NO:24), and […] NO:25) (see SEQ ID NOs:27-29, respectively in WO 2007/038683). The antimicrobial activity of these peptides against anaerobic planktonic bacteria was determined by a modification of a previously described assay. Briefly, Streptococcus mutans strain UA159 cells were diluted to -1×10^5 cfu/mL in Todd-Hewitt (TH) broth medium and mixed with either suspended hydroxyapatite nanocrystals (Berkeley Advanced Biomaterials, Inc., 0.03% w/v) or, for control samples, an equivalent volume of deionized water. Aliquots were transferred into 96-well plates (Fisher). Serial dilutions of the peptides were then made and added to the bacteria. […] Nonetheless, some antimicrobial activity is retained by this peptide.

Row | Substance | Nmax (maximum monolayer surface concentration) [1] | KA (binding affinity for HA) [1] | effect of sequence variation on binding affinity (KA) relative to DSS peptide of same size ([1]; in words) | specificity of binding to carious lesions versus healthy enamel [2] | level of binding (staining) to tooth surfaces [3] | tissue pattern of binding in the tooth section [3] | also measured
1 | 4DS(P)S: phosphorylated DSS repeat peptide of the same size as 4DSS, SEQ ID NO:4 (D[pS]SD[pS]SD[pS]SD[pS]S) | 1.2 × 10^−7 ± 5 × 10^−9 mol/m^2 | 83,000 ± 9,000 M^−1 | did not lead to a significant change in binding affinity | – | – | – | surface binding density relative to unphosphorylated peptide ([1]; in words): large increase in the surface binding density
2 | 4NAA: printed once with SEQ ID NO:44; not among the synthesized peptides, probably a misprint (NAANAANAANAA; synthetic calcium-binding peptide 4NAA) | – | – | – | – | – | – | strength of staining of carious lesions [2]: exceptionally strong staining of carious lesions
3 | 5DSS: peptide of five Asp-Ser-Ser repeats, SEQ ID NO:22 (DSSDSSDSSDSSDSS; synthetic calcium-binding peptide 5DSS, (DSS)-5) | 9.2 × 10^−8 ± 2 × 10^−9 mol/m^2 | 148,000 ± 14,000 M^−1 | – | – | – | – | –
4 | ASS ASS ASS ASS ASS ASS ASS ASS (ASSASSASSASSASSASSASSASS; synthetic calcium-binding peptide 8ASS) | – | – | significant loss of binding affinity | highly specific binding to carious lesions | lower levels of binding | – | strength of staining of carious lesions [2]: exceptionally strong staining of carious lesions
5 | DAA DAA DAA DAA DAA DAA DAA DAA (DAADAADAADAADAADAADAADAA; synthetic calcium-binding peptide 8DAA) | 6.0 × 10^−8 ± 6 × 10^−9 mol/m^2 | 310,000 ± 74,000 M^−1 | – | highly specific binding to carious lesions | – | primary binding to the root tip dentin and cortical enamel | effect of sequence variation on binding affinity (KA) relative to DSS peptide of same size ([1]; in words, listed as DAA8): little observable effect; effect of sequence variation on binding affinity (KA) relative to DSS peptide of same size ([1]; in words, listed as DAA-8): within experimental error of the KA for 8DSS; strength of staining of carious lesions [2]: exceptionally strong staining of carious lesions
6 | DSS DSS (DSSDSS; synthetic calcium-binding peptide 2DSS) | 2 × 10^−8 ± 5 × 10^−9 mol/m^2 | 57,000 ± 24,000 M^−1 | – | – | – | – | –
7 | DSS DSS DSS DSS (DSSDSSDSSDSS; synthetic calcium-binding peptide 4DSS) | 5.8 × 10^−8 ± 6 × 10^−9 mol/m^2 | 94,000 ± 26,000 M^−1 | – | highly specific binding to carious lesions | – | bound primarily to the mantle dentin | strength of staining of carious lesions [2]: exceptionally strong staining of carious lesions
8 | DSSDSSDSSDSSGGGRWRWRWF [4DSS-2c4, DSS DSS DSS DSS GGG RWRWRWF] | – | – | – | – | – | – | MIC ([4]; planktonic S. mutans, with 0.03% (w/v) hydroxyapatite, approximately 24 hours): unaffected; MIC ([4]; strain UA159, 24 h): 52.5
9 | DTT DTT DTT DTT (DTTDTTDTTDTT; synthetic calcium-binding peptide 4DTT) | 1.3 × 10^−8 ± 1 × 10^−9 mol/m^2 | 161,000 ± 79,000 M^−1 | little observable effect | – | sharply reduced levels | binding patterns similar to those of 4DSS | –
10 | ESS ESS ESS ESS (ESSESSESSESS; synthetic calcium-binding peptide 4ESS) | 4.6 × 10^−8 ± 4 × 10^−9 mol/m^2 | 81,000 ± 18,000 M^−1 | – | highly specific binding to carious lesions | lower levels of binding | – | strength of staining of carious lesions [2]: exceptionally strong staining of carious lesions
11 | ETT ETT ETT ETT (ETTETTETTETT; synthetic calcium-binding peptide 4ETT) | 8.8 × 10^−8 ± 9 × 10^−9 mol/m^2 | 79,000 ± 25,000 M^−1 | little observable effect | highly specific binding to carious lesions | sharply reduced levels | binding patterns similar to those of 4DSS | –
12 | FHFHLHF [PL-135, FHFHLHF, reference compound] | – | – | – | – | – | – | MIC ([4]; strain UA159, 24 h): 21
13 | LKRFLKWFKRF [b-34, LKRF LKWF KRF, reference compound] | – | – | – | – | – | – | MIC ([4]; strain UA159, 24 h): 5.6
14 | NAANAANAANAANAANAANAANAA [8NAA] | – | – | – | highly specific binding to carious lesions | very little binding to any healthy tissue | did bind somewhat to a carious lesion | HA binding activity ([1]; in words): near-total loss of binding activity
15 | NSS NSS NSS NSS (NSSNSSNSSNSS; synthetic calcium-binding peptide 4NSS) | 3.0 × 10^−8 ± 1 × 10^−9 mol/m^2 | 16,000 ± 4,000 M^−1 | significant loss of binding affinity | highly specific binding to carious lesions | lower levels of binding | – | –
16 | NTT NTT NTT NTT (NTTNTTNTTNTT; synthetic calcium-binding peptide 4NTT) | 5.8 × 10^−8 ± 2 × 10^−8 mol/m^2 | 17,000 ± 7,000 M^−1 | significant loss of binding affinity | – | very low levels of binding to the healthy tooth tissue | strong binding to a fragment of periodontal bone | HA binding activity ([1]; in words): near-total loss of binding activity
17 | RWRWRWF [2c-4, RWRWRWF, reference compound] | – | – | – | – | – | – | MIC ([4]; strain UA159, 24 h): 2
